Laboratory results reported in article PMC9233675, “Ru(II) photocages enable precise control over enzyme activity with red light” (Nature Communications, 2022).
Substitutions are numbered along the chain they refer to. “And” between values parts separate entries of the source, which are not always exact repeats. Equal values may be shown once. Read-outs that look alike come from different tables or passages of the source. Blank lines part the entries; values can stand above or below the molecule they belong to.

Legend:
CYP1B1 D333N = target: T1, CYP1B1 D333N (Homo sapiens, UniProt Q16678, D333N); assay: In cell CYP1B1 activity assay, D333N variant; details: for logSI D333N: log of the ratio of IC50 values mutant vs WT (Fig. 3c)
T1 sequence (Q16678 1-543 D333N): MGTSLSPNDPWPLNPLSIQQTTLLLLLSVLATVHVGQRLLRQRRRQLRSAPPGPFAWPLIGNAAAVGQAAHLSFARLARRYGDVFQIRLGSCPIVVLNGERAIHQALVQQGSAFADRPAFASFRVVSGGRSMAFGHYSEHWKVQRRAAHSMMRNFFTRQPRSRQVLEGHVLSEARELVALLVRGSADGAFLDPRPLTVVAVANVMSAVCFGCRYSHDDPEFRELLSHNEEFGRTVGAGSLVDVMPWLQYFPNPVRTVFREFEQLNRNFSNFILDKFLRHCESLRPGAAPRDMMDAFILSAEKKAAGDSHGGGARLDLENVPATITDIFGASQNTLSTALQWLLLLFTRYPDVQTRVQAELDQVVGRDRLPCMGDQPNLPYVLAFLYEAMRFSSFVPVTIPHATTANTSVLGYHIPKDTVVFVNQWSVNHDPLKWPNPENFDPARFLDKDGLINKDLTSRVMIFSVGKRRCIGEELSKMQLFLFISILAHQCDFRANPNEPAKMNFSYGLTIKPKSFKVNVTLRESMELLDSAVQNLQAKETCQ
Description: (§3) Site directed mutagenesis was used to probe the importance of specific active-site contacts identified through the structural assessment (Fig. 3a, b) and simulations. In all cases, conservative mutations were made to maintain polar or hydrophobic character and approximate size. The aromatic residues that frame the inhibitor binding site, Phe143 and Phe231, were mutated to Leu to determine the importance of the π interactions. In addition, the Ser127 residue, located in the upper corner of the active site on the B-C loop, was chosen for mutation based on the simulations. This amino acid transiently contacts the inhibitors, but also forms a hydrogen bond with Asp326 of the I-helix, and thus may impact the position of this helix with regards to the B-C loop. […] Rather than directly mutating these residues in the I-helix, neighboring residues Gln332 and Asp333 were targeted, with the hope of interrupting amino acid interactions that position the helix within the active site.
(§4) The ratio of IC50 values for the WT vs. the mutant are shown in Fig. 3c and reflects the importance of the specific contact; the log of the value is used to aid in visualization.
(§5) Cell lines were seeded onto Geltrex coated 96-well plates at 40,000 cells/well, and grown overnight in DMEM media containing 1 μg/mL tetracycline. The media was then replaced with Opti-MEM supplemented with 2% FBS and 1 μg/mL tetracycline. Compounds were serially diluted in Opti-MEM supplemented with 2% FBS and 1 μg/mL tetracycline and an equal volume of compound added to the cells (n = 3). Following a 1 h incubation, resorufin ethyl ether (REE; for CYP1B1 and 1A1) or dibenzylfluorescein (DBF; for 19A1) was added to the cells for a total concentration of 5 μM for REE and 1 μM for DBF. […] Dose–response curves were generated in Prism and normalized using the no-compound control (set as 100% activity) and the no-cell control (set as 0% activity; this value in the raw data reflects the background fluorescence of the dye alone).

[1] = Stability of compounds in human liver microsomes; details: for Remaining, % (NCF=60min): human liver microsomes, no co-factor (no NADPH)
[2] = Cellular viability (resazurin to resorufin, 72 h); format: cell-based, human; details: human, parental HEK293 T-Rex cells, HEK293 T-Rex, after 72 hrs; for viability at 72 h, 1.11 μM: Log Conc 0.045757; for viability at 72 h, 3.33 μM: Log Conc 0.522879; for viability at 72 h, 30 μM: Log Conc 1.47712; for viability at 72 h, 0.37 μM: Log Conc -0.43136; for viability at 72 h, 0.123 μM: Log Conc -0.90849; for viability at 72 h, 0.0412 μM: Log Conc -1.38561; for viability at 72 h, 0.0137 μM: Log Conc -1.86273
Experimental: (§1) The cells were >70% viable at 72 h with 10 μM compound, as quantified by metabolically active cells determined by the conversion of resazurin to resorufin (Supplementary Figs. 18–20).
(§2) The parental HEK T-Rex cell line was maintained as above, in the absence of Zeocin. Compounds were serially diluted in media, and the cells were dosed from 0–30 μM compound, and then incubated at 37 °C (n = 3). […] The cells were incubated with the compound in the dark for 30 min prior to light exposure, using the same parameters as in the enzyme activity assay, and then treated as above.

HEK293 T-Rex cell line = assay: Cellular viability (resazurin to resorufin, 72 h); format: cell-based, human; details: HEK293 T-Rex, after 72 hrs
Experimental: as §1, §2

CYP1A1 = target: T2, CYP1A1 (Homo sapiens, UniProt P04798); assay: In cell activity assay for CYP1A1 (7-ethoxyresorufin conversion, HEK293 T-Rex cells); details: for % Enzyme Activity: CYP1A1, dark; for SI (1B1:1A1): ratio of IC50 CYP1A1 to CYP1B1, for complexes 4–6 the IC50 (light) values were used; for IC50: REE
T2 sequence (P04798 1-512): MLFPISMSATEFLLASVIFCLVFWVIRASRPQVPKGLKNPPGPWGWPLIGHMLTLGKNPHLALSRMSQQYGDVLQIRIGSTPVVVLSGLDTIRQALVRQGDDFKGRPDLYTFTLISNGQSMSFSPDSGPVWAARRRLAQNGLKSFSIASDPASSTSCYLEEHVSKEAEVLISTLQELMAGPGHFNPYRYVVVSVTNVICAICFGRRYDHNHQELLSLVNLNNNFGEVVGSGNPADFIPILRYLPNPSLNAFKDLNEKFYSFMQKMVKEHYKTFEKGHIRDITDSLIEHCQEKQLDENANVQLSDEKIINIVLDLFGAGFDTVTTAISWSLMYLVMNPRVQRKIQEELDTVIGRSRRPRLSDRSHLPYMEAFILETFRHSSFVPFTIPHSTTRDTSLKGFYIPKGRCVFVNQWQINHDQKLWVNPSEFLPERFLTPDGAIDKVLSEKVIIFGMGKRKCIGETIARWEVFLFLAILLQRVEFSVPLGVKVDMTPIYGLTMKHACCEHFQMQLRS
Description: A stable HEK cell line was created with CYP1B1 expression under the control of tetracycline to facilitate regulated and titratable expression (see the Methods section for more details). A cell line was also created for CYP1A1 as a counter screen to evaluate selectivity. […] The fluorogenic substrate, 7-ethoxyresorufin (REE), is a validated substrate for both CYPs and was used in both assays. Cytochrome P450 oxidoreductase (POR) is the required reductase partner for CYPs, and was also overexpressed in these systems to improve catalytic efficiency and the resulting signal for the assay.
Both the CYP and POR expression was under the control of the TetO2 inducible CMV promoter[26].
Cell lines were generated in the HEK293 T-Rex cell line. Following transfection, cells were selected with 500 μg/mL Zeocin, and 7.5 μg/mL Blasticidin to create a stable pool. Inducible expression of CYP and POR was confirmed by immunoblot. […] The lines were maintained with 250 μg/mL Zeocin and 7.5 μg/mL Blasticidin to ensure continued selective pressure.
as §5
For the light-activated compounds, the experiment was modified as follows: Cells were seeded and grown overnight as described above. Media was replaced with L-15 containing 1 μg/mL tetracycline; L-15 media was used in place of opti-MEM™ to maintain CO2 outside the incubator, and to prevent cellular damage from light. Compounds were serially diluted in L-15 with 1 μg/mL tetracycline and added to the cells followed by a 1 h incubation. […] REE or DBF was added as described above.

CYP1B1 Q332E = target: T3, CYP1B1 Q332E (Homo sapiens, UniProt Q16678, Q332E); assay: In cell CYP1B1 activity assay, Q332E variant; details: for logSI Q332E: log of the ratio of IC50 values mutant vs WT (Fig. 3c)
T3 sequence (Q16678 1-543 Q332E): T1 sequence (Q16678 1-543 D333N) with Q332E, N333D
Description: as §3, §4, §5

[3] = Stability of compounds in rat liver microsomes; details: for Remaining, % (NCF=60min): rat liver microsomes, no co-factor (no NADPH)
[4] = read-out: IC50 CYP1A1 Dark, Dark, n = 3
[5] = read-out: IC50 CYP1A1 Light, Light: 660 nm, 58.7 J/cm^2

logSI D333N (CYP1B1 D333N): 2
Remaining, % (NCF=60min) [1]: 77.1%
% Enzyme Activity (CYP1A1; Log Conc 0.045757): 58.9151% and 62.8214% and 61.5139%
% Enzyme Activity (CYP1A1; Log Conc 0.522879): 20.9441% and 25.477% and 27.5679%
% Enzyme Activity (CYP1A1; Log Conc 1): 2.088% and 2.407% and 5.1678%
% Enzyme Activity (CYP1A1; Log Conc -0.43136): 94.4495% and 93.088% and 89.9544%
% Enzyme Activity (CYP1A1; Log Conc -0.90849): 109.334% and 103.31% and 104.553%
% Enzyme Activity (CYP1A1; Log Conc -1.38561): 108.032% and 102.127% and 103.391%
% Enzyme Activity (CYP1A1; Log Conc -1.86273): 103.764% and 105.887% and 103.748%
% Enzyme Activity (CYP1A1; Log Conc -2.33985): 105.601% and 99.1121% and 95.2869%
logSI Q332E (CYP1B1 Q332E): 0.6
Remaining, % (NCF=60min) [3]: 63.7%
SMILES: COc1cc(/C=C/c2ccc(OC)cc2OC)cc(OC)c1 [Compound 1, reference compound]
viability at 72 h, 1.11 μM [2]: 91.2%
viability at 72 h, 3.33 μM [2]: 76.6%
viability at 72 h, 30 μM [2]: 68.4%
viability at 72 h, 0.37 μM [2]: 98.9%
viability at 72 h, 0.123 μM [2]: 98.4%
viability at 72 h, 0.0412 μM [2]: 97.1%
viability at 72 h, 0.0137 μM [2]: 99.3%
% Viable (HEK293 T-Rex cell line; Log Conc 0.045757): 81.8963% and 90.1938%
% Viable (HEK293 T-Rex cell line; Log Conc 0.522879): 71.5944% and 78.1539%
% Viable (HEK293 T-Rex cell line; Log Conc 1): 79.5836% and 68.5529%
% Viable (HEK293 T-Rex cell line; Log Conc 1.47712): 62.2316% and 63.1567%
% Viable (HEK293 T-Rex cell line; Log Conc -0.43136): 95.7862% and 89.6612%
% Viable (HEK293 T-Rex cell line; Log Conc -0.90849): 94.8612% and 92.8008%
% Viable (HEK293 T-Rex cell line; Log Conc -1.38561): 93.2073% and 97.8887%
% Viable (HEK293 T-Rex cell line; Log Conc -1.86273): 106.593% and 96.3469%

IC50 (CYP1B1 D333N): 5 µM
logSI D333N (CYP1B1 D333N): 1.8
Remaining, % (NCF=60min) [1]: 96.5%
CLint scaled ([1]; human, liver microsomes): 181 mL/min/kg
Remaining, % (T=60min) ([1]; human, liver microsomes): 0.4%
half-life ([1]; human, liver microsomes): 6.9 min
microsomal CLint ([1]; human, liver microsomes): 201 µL/min/mg
% Enzyme Activity (CYP1A1; Log Conc 0.045757): 97.5755% and 125.129% and 102.858%
% Enzyme Activity (CYP1A1; Log Conc 0.522879): 79.4229% and 93.0687% and 81.8125%
% Enzyme Activity (CYP1A1; Log Conc 1): 15.2494% and 25.1537% and 27.5852%
% Enzyme Activity (CYP1A1; Log Conc -0.43136): 110.341% and 133.598% and 109.681%
% Enzyme Activity (CYP1A1; Log Conc -0.90849): 118.484% and 126.806% and 121.555%
% Enzyme Activity (CYP1A1; Log Conc -1.38561): 117.981% and 113.967% and 112.29%
% Enzyme Activity (CYP1A1; Log Conc -1.86273): 107.668% and 117.038% and 124.375%
% Enzyme Activity (CYP1A1; Log Conc -2.33985): 98.3615% and 101.034% and 100.604%
SI (1B1:1A1) (CYP1A1): 175
IC50 (CYP1B1 Q332E): 0.402 µM
logSI Q332E (CYP1B1 Q332E): 0.7
Remaining, % (NCF=60min) [3]: 47.1%
CLint scaled ([3]; rat, liver microsomes): 369 mL/min/kg
Remaining, % (T=60min) ([3]; rat, liver microsomes): 0.3%
half-life ([3]; rat, liver microsomes): 6.75 min
microsomal CLint ([3]; rat, liver microsomes): 205 µL/min/mg
SMILES: COc1ccc(/C=C/c2ccncn2)c(OC)c1 [Compound 2]
Ratio IC50 (mutant)/ IC50 (WT), D333N (CYP1B1 D333N): 66
viability at 72 h, 1.11 μM [2]: 97.3%
viability at 72 h, 3.33 μM [2]: 79.8%
viability at 72 h, 10 μM ([2]; Log Conc 1): 64.5%
viability at 72 h, 30 μM [2]: 51.9%
viability at 72 h, 0.37 μM [2]: 85.2%
viability at 72 h, 0.123 μM [2]: 89.2%
viability at 72 h, 0.0412 μM [2]: 92%
viability at 72 h, 0.0137 μM [2]: 93.4%
% Viable (HEK293 T-Rex cell line; Log Conc 0.045757): 94.5248% and 84.1248%
% Viable (HEK293 T-Rex cell line; Log Conc 0.522879): 84.1669% and 88.3577%
% Viable (HEK293 T-Rex cell line; Log Conc 1): 69.8564% and 78.2941%
% Viable (HEK293 T-Rex cell line; Log Conc 1.47712): 51.1449% and 56.2608%
% Viable (HEK293 T-Rex cell line; Log Conc -0.43136): 92.2822% and 92.2261%
% Viable (HEK293 T-Rex cell line; Log Conc -0.90849): 98.0989% and 92.2261%
% Viable (HEK293 T-Rex cell line; Log Conc -1.38561): 94.0623% and 98.2391%
% Viable (HEK293 T-Rex cell line; Log Conc -1.86273): 98.7016% and 97.4401%
Ratio IC50 (mutant)/ IC50 (WT), Q332E (CYP1B1 Q332E): 5.3

SMILES: COc1ccc(/C=C/c2cc[n+]([Ru-4]345([n+]6ccccc6-c6cccc([n+]63)-c3cccc[n+]34)[n+]3c(cc(C(=O)[O-])c4ccccc43)-c3cc(C(=O)[O-])c4ccccc4[n+]35)cn2)c(OC)c1 [Compound 5]
impact on CYP1A1 (CYP1A1; at concentrations ≥10 μM (so in the source)): no impact
SI (1B1:1A1) (CYP1A1): 460
IC50 (CYP1A1; [4]): 40.9 µM
IC50 (CYP1A1; [5]): 7.82 µM

SMILES: COc1ccc(/C=C/c2cc[n+]([Ru-4]345([n+]6ccccc6-c6cccc([n+]63)-c3cccc[n+]34)[n+]3c(cc(C(=O)[O-])c4ccccc43)-c3cc(C(=O)[O-])c4ccccc4[n+]35)cc2)c(OC)c1 [Compound 6]
% Enzyme Activity (CYP1A1; Log Conc 0.39794): 91.0522% and 92.8898%
% Enzyme Activity (CYP1A1; Log Conc 1): 101.782% and 110.804%
% Enzyme Activity (CYP1A1; Log Conc -0.20412): 95.4892% and 97.456%
% Enzyme Activity (CYP1A1; Log Conc -0.80618): 104.418% and 113.985%
% Enzyme Activity (CYP1A1; Log Conc -1.40824): 109.608% and 108.283%
% Enzyme Activity (CYP1A1; Log Conc -2.0103): 108.509% and 109.086%
% Enzyme Activity (CYP1A1; Log Conc -2.61236): 100.346% and 103.098%
% Enzyme Activity (CYP1A1; Log Conc -3.21442): 102.096% and 97.9039%
SI (1B1:1A1) (CYP1A1): >100,000
IC50 (CYP1A1; [4]): > 30 µM
IC50 (CYP1A1; [5]): > 30 µM
